Assay results published in patent US6015822A, “Sulfonamide-substituted fused 5-membered ring compounds, their use as a medicament, and pharmaceutical preparations comprising them” (Hoechst Marion Roussel Deutschland GmbH, priority 1997, dated 2000).

Target: T1, human IsK protein (UniProt P15382+P70057)
T1 construct: expressed in transfected cells; host or cells: Xenopus laevis oocytes injected with in vitro synthesized IsK RNA
Test: Inhibition of IsK current in Xenopus oocytes expressing human IsK (two microelectrode voltage clamp)
Type: cell-based
Details: human IsK expressed in Xenopus oocytes; voltage jumps to -10 mV lasting 15 s; pH 7.5; room temperature; extrapolated using the Hill equation; read-out: IC-50 (inhibition of IsK control current)
Description: IsK channels from man, rat or guinea-pig were expressed in Xenopus oocytes. To do this, oocytes were first isolated from Xenopus Laevis and defolliculated. IsK -encoding RNA synthesized in vitro was then injected into these oocytes. After IsK protein expression for 2-8 days, IsK currents were measured in the oocytes using the two microelectrode voltage clamp technique. The IsK channels were in this case as a rule activated using voltage jumps to -10 mV lasting 15 s. The bath was irrigated with a solution of the following composition: NaCl 96 mM, KCl 2 mM, CaCl2 1.8 mM, MgCl2 1 mM, HEPES 5 mM (titrated with NaOH to pH 7.5). These experiments were carried out at room temperature. The following were employed for acquiring data and analysis: Geneclamp amplifier (Axon Instruments, Foster City, U.S.A.) and MacLab D/A converter and software (ADInstruments, Castle Hill, Australia). The substances according to the invention were tested by adding them to the bath solution in different concentrations. The effects of the substances were calculated as the percentage inhibition of the IsK control current, which was obtained when no substance was added to the solution. The data were then extrapolated using the Hill equation in order to determine the inhibitory concentrations IC50 for the respective substances.
In the described manner, using the human IsK protein, the following IC50 values were determined for the compounds according to the invention: […]

T1 sequence (P70057 whole entry): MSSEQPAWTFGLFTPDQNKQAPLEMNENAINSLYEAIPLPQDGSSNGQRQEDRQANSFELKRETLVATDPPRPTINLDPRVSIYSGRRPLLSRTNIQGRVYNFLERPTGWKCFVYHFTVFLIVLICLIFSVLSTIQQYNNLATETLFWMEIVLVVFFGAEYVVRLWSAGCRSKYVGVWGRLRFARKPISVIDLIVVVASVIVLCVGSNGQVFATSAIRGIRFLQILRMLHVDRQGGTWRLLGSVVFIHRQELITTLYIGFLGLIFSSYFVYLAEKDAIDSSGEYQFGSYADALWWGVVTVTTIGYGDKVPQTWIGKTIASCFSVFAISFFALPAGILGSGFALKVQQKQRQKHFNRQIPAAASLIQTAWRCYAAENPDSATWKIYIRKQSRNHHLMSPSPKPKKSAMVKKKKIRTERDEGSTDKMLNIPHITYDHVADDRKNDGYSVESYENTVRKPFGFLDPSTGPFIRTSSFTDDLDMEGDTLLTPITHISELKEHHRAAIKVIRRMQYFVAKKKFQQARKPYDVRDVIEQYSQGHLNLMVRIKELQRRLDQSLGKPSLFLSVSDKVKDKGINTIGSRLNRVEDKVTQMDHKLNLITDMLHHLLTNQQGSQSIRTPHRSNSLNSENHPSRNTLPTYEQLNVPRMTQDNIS

SMILES | IC50 [nM]
CCS(=O)(=O)N(C)C1CC(C)(C)c2ccccc21 (stereo not shown) [Example 2, 3,3-Dimethyl-1-(N-ethylsulfonyl-N-methyl)aminoindan] | ~15000
CCCCCCN(C1CC(C)(C)c2ccccc21)S(C)(=O)=O (stereo not shown) [Example 3, 3,3-Dimethyl-1-(N-hexyl-N-methylsulfonyl)aminoindan] | < 10000
CCCCN(C1CS(=O)(=O)c2ccccc21)S(C)(=O)=O (stereo not shown) [Example 5, N-Butyl-N-(1,1-dioxo-2,3-dihydro-1H-benzo[b]thiophen-3-yl)-methanesulfonamide] | > 10000
CCCCN(C1CC(C)(C)c2ccc([N+](=O)[O-])cc21)S(C)(=O)=O (stereo not shown) [Example 11, 3,3-Dimethyl-6-nitro-1-(N-butyl-N-methylsulfonyl)aminoindan] | 2700
CC1(C)CC(N(Cc2ccncc2)S(C)(=O)=O)c2cc([N+](=O)[O-])ccc21 (stereo not shown) [Example 12, 3,3-Dimethyl-6-nitro-1-[N-(4-pyridylmethyl)-N-methylsulfonyl]aminoindan] | ~2000
CCCCOc1ccc2c(c1)C(N(C)S(C)(=O)=O)CC2(C)C (stereo not shown) [Example 13, 6-Butoxy-3,3-dimethyl-1-(N-methyl-N-methylsulfonyl)aminoindan] | 1200
CCCCOc1ccc2c(c1)C(N(CC)S(C)(=O)=O)CC2(C)C (stereo not shown) [Example 14, 6-Butoxy-3,3-dimethyl-1-(N-ethyl-N-methylsulfonyl)aminoindan] | 440
